According to patent US20220411448A1, “CHROMENE-4-ONE DERIVATIVES AS BRAIN-DERIVED NEUROTROPHIC FACTOR (BDNF) MIMETICS” (FLORATEK PHARMA AG, priority 2019, published 2022):

Experiments:
[1] = tested on: organotypic hippocampal brain slices with IAA lesion; test: Organotypic brain slices, iodoacetic acid injury: mitochondrial membrane potential (TMRM); format: cell-based, mouse; conditions: SND118 10 and 30 μM; SND124 30 μM; IAA 250 μM for 110 min
Method: Preparation of the organotypic brain slices were performed by decapitation of the P9/P10 mouse pups, removing skin and skull and immersing brains in slicing medium (Opti-MEM 1, […]). Brains were hemisected and hippocampi were isolated. Hippocampi were placed on the cutting disc of a McIlwain Tissue Chopper. […] hippocampal slices were chopped transversely. A number of 4 slices per hippocampus were placed on porous (0.4 μM) transparent membrane inserts (Millipore) and incubated for 1 h on ice in HBSS containing 10 mM glucose. Afterwards inserts were transferred to fresh 24-well plates containing 250-300 μl culture medium (50% MEM/EBSS, 25% horse serum, 25% CMF-HBSS, 25 mM glucose, 0.5% pen/strep). Slices were maintained at 37° C. and 5% CO2.
On DV15, brain slices were pretreated with SND derivatives test compounds and the reference 7,8DHF at various concentrations (between […]) for 30 min, followed by the addition of iodoacetic acid (IAA) at 250 μM for 110 min, when cell survival, MMP and toxicity were measured.
Cell survival was measured by the MTT assay. […] Fluorescence was measured with a plate-reader (Cytation 5) using wavelengths of excitation and emission of 548 and 574 nm, respectively (area scan). Values were calculated as percent of control values (vehicle control). Toxicity of the treatment was measured by LDH. […]

[2] = tested on: primary cultures of cerebral cortical astrocytes; test: Glucose uptake ([3H]2-deoxyglucose) in astrocyte cultures; format: cell-based, mouse; conditions: 10 μM, 30 minutes after application
Method: Primary cultures of cerebral cortical astrocytes were prepared from Swiss albino newborn mice (1-2 days old) as described [Pellerin L, Magistretti P J. Glutamate uptake into astrocytes stimulates aerobic glycolysis: a mechanism coupling neuronal activity to glucose utilization. Proc Natl Acad Sci USA. 1994 Oct. 25; 91(22):10625-9]. This procedure yields cultures that are >95% immunoreactive for glial fibrillary acidic protein.
Astrocytes are emerging as having significant roles in several homeostatic processes in the brain [Zuchero J B, Barres B A. Glia in mammalian development and disease. Development 2015 142: 3805-3809]. To evaluate the potential effects of Compound A (10 μM) on astrocyte metabolism, the uptake of glucose and lactate release were measured 30 minutes after application of compounds to the culture (FIGS. 2 and 3).
Glucose utilization by cells was measured using radioactive 2-deoxyglucose, a well-established marker of glucose utilization not metabolized within cells. […]
In order to quantify glucose utilization by cells in the presence of Compound A/SND118, radioactive 2-deoxyglucose, a well-established marker of glucose utilization not metabolized within cells, was used. The radioactivity count is thus proportional to the transport and phosphorylation of glucose that enters into the cells. […]

[3] = Metabolic stability in human intestine microsomes; format: in vitro ADME; conditions: both sexes, pooled intestine microsomes, pH 7.4, intestinal microsomes, 0.5 mg/ml protein, read-out: T1/2 IM human
Method: Sample type: pooled liver or intestine microsomes; Species: CD1-mouse (male), human (mixed gender) Time points: 0, 10, 20, 40, 60 min cofactors, and negative control;
Protein content: 0.5 mg/ml: Replicates: 2 with cofactors, 1 without cofactors; Cofactors: NADPH (1 mM)+UDPGA (1 mM)+15 μg/ml alamethicin Buffer: 0.1 M phosphate buffer pH 7.4, 2 mM MgCl2; Spiking solvent: 50% DMSO ( 1/100 to incubation); Quenching solvent: 2-fold volume of 75% ACN, Control: midazolam disappearance rate
The study compounds were incubated with liver or intestine microsomes as specified above. The collected samples were stored at −20 C until thawed at room temperature, centrifuged and analyzed as presented below.
The samples were analysed by UPLC/HR-MS (with data dependent MS/MS mode) to monitor substrate depletion (and later optionally metabolite formation). The analytical method was optimised by using the parent compound for optimum chromatographic properties (peak shape and retention) and mass spectrometric ionisation. Disappearance rate of the study compound was estimated based on relative LC/MS peak areas (o min marked as 100%), and was used to calculate in vitro half-life and clearance (and in vivo extrapolation of hepatic clearance).

Cox (cytochrome oxidase) = test: Quantitative PCR of mitochondrial gene Cox; format: cell-based, mouse; conditions: 1 μM and 10 μM, 1 h and 2 h treatment
Method: The effect of Compound A or derivative thereof on the mRNA expression of genes related to plasticity (Arc, cFos, and Zif268) was determined as described. Cox (cytochrome oxidase) was used to evaluate if the derivative changes expression of mitochondrial genes.
Determination of gene expression was performed as previously described [Yang J, et al, Lactate promotes plasticity gene expression by potentiating NMDA signalling in neurons. Proc Natl Acad Sci USA. 2014. 111(33):12228-33]. Total RNA was isolated from cultured cells using Nucleospin RNA II kit (Macherey-Nagel) according to the manufacturer's instructions. The first strand of cDNA was synthesized from 100 ng of total RNA (60 min at 37° C. followed by 5 min at 95° C.) using a high-capacity RNA to cDNA reverse transcription system (Applied Biosystems). One-twentieth of the resulting cDNA was amplified by quantitative PCR (qPCR) with an ABI Prism 7900 system (Applied Biosystems). The PCR mix was composed of 6 ng of cDNA, 300 nM of forward and reverse primers in 10 μL of ix SYBR-Green PCR MasterMix (Applied Biosystems). Primer sequences were designed using Primer Express 3.0 software (Applied Biosystems) and oligonucleotides were synthesized by Microsynth.

half-life at 1 μM [3]: 30.8 min | mRNA expression of Cox (cytochrome oxidase) (Cox (cytochrome oxidase)): unaffected
Compound: O=c1cc(-c2ccc(CCCC[P+](c3ccccc3)(c3ccccc3)c3ccccc3)cc2)oc2c(O)c(O)ccc12 [SND118, 4-[4-(7,8-dihydroxy-4-oxo-chromen-2-yl)phenyl]butyltriphenylphosphonium bromide]
mitochondria function (MMP, TMRM) after IAA lesion [1]: rescued mitochondria function | uptake of deoxyglucose (glucose uptake) [2]: increased the uptake of deoxyglucose in the same range as glutamate control
